The nature of series [1]: Cassette Dosing and Serum Analysis for Determination of Bioavailability. The format is in vivo, rat. The note with it: average AUC 0→12 h, male Sprague Dawley rats, single oral cassette dose (6 compounds, total dose 10 mg/kg), plasma. The method, then: The cassette included 5 test articles and a standard compound, for a total dose of 10 mg/kg. Each compound/test article was converted to the sodium salt with equimolar 1 N NaOH and dissolved in water at 2 mg/mL. The cassette was prepared by mixing equal volumes of each of the six solutions. The cassette dosing solution was mixed well and then the pH was adjusted to 7.5–9. The dosing solution was prepared the day before the study and stirred overnight at room temperature.
Male Sprague Dawley (SD) rats from Charles River Laboratories, 6–8 weeks old were used in this screen. Rats were quarantined for at least one day and had continuous access to food and water. On the night before the administration of the cassette, the rats were fasted for approximately 16 h.
Four SD rats were assigned in each cassette. A single dose of the dosing solution was administered orally to each rat. The dosing volume (5 mL/kg) and time were recorded and rats were fed 2 h after dosing.
Blood samples were collected via cardiac puncture at the following time points: 4 h, 8 h and 12 h. Immediately prior to blood collection, rats were anesthetized with CO2 gas within 10–20 seconds. After the 12-h samples were collected, the rats were euthanized via CO2 asphyxiation followed by cervical dislocation.
Blood samples were kept in heparinized microtainer tubes under sub-ambient temperature (4° C.) before they were processed. Blood samples were centrifuged (10000 rpm for 5 minutes) and plasma samples were removed and stored in a −20° C. freezer until analyzed for drug levels. Drug levels in the plasma were analyzed using the following protocol for direct plasma precipitation.
The in vivo plasma samples were prepared in a 1.5 mL 96-well plate, by adding, in order, 100 μL of the test plasma, 150 μL of methanol, followed by vortexing for 10–20 seconds. 150 μL of 0.05 ng/μL of an Internal Standard in acetonitrile were added and vortexed for 30 seconds.
The standard curve samples were prepared in a 1.5 mL 96-well plate, by adding, in order, 100 μL of control mouse plasma, followed by 150 μL of methanol and vortexing for 10–20 seconds. 150 μL of 0.05 ng/μL of an Internal Standard in acetonitrile were added and vortexed for 30 seconds. The samples were spiked with 0–200 ng (10 concentrations) of the compound of interest in 50% methanol to obtain a standard curve range of 0.5 ng/mL–2,000 ng/mL. Again, the sample was vortexed for 30 seconds.
The samples were then spun for 20–30 minutes at 3000 rpm in an Eppendorf microfuge before 80–90% of supernatant was transferred into a clean 96-well plate. The organic solvent was then evaporated until the samples were dry (under N2 at 40° C./30–60 min (Zymark Turbovap)).
The residue was then dissolved in […] mobile phase (50% CH3OH/0.1% TFA). LC/MS/MS was then run using a PE-Sciex API-3000 triple quadurpole mass spectrometer (SN0749707), Perkin-Elmer, Series200auto-sampler, and shimadzu 10A pump. Acquisition was done with PE-Sciex Analyst (v1.1) and data analysis and quantification were accomplished using PE-Sciex Analyst (v1.1). A 5–50 μL sample volume was injected onto a reverse phase ThermoHypersil DASH-18 column (Keystone 2.0×20 mm, 5 μm, PN: 8823025-701) using a mobile phase of 25% CH3OH, 0.1% TFA-100% CH3OH, 0.1% TFA. The run time was about 8 minutes at a flow rate of about 300 μL/minutes.
The Area Under the Curve (AUC) was calculated using the linear trapezoidal rule from t=0 to the last sampling time tx (see Handbook of Basic Pharmacokinetics, Wolfgang A. Ritschel and Gregory L. Kearns, 5th ed, 1999). AUC^0→tx=S((Cn+Cn+1)/2))·(tn+1−tn)[(μg/mL)h]

Another series concerns the target T1, α4β1 integrin (Homo sapiens, UniProt P05556+P13612).
T1 construct: Jurkat™ cells (maintained in log phase growth) were labeled with Calcein AM; endogenous in cells; host or cells: Jurkat cells
Kind of series: α4β1 Integrin Adhesion Assay: Jurkat Cell Adhesion to Human Plasma Fibronectin. The format is cell-based. The note with it: Jurkat cells. Here is the method:
96 well plates (Costar 3590 EIA plates) were coated with human fibronectin (Gibco/BRL, cat #33016–023) at a concentration of 10 μg/mL overnight at 4° C. The plates were then blocked with a solution of bovine serum albumin (BSA; 0.3%) in saline. Jurkat™ cells (maintained in log phase growth) were labeled with Calcein AM according to the manufacturer's instructions, and suspended at a concentration of 2×10^6 cells/mL in Hepes/Saline/BSA. The cells were then exposed to test and control compounds for 30 minutes at room temperature before transfer to individual wells of the fibronectin coated plate. Adhesion was allowed to occur for 35 minutes at 37° C. The wells were then washed by gentle aspiration and pipetting with fresh saline. Fluorescence associated with the remaining adherent cells was quantified using a fluorescence plate reader at EX 485/EM 530.
Cell cultures were prepared by first splitting the stationary phase Jurkat™ cells at 1:10 on day one, and 1:2 on day two to perform assay on day 3. The cells split 1:10 on day one were split 1:4 on day 3 for a day 4 assay.
The assay plates were prepared by first making a working solution of Gibco/BRL Human Fibronectin (cat #33016-023) in PBS++, at 10 μg/mL. A Costar 3590 EIA plate was then coated with 50 μL/well for 2 hours at room temperature (thought it can also be left overnight at 4° C.). Finally the plate was asperated and blocked with Hepes/Saline Buffer, 100 μL/well, for 1 hour at RT followed by washing 3× with 150 μL of PBS++.
Compound dilutions were accomplished by preparing 1:3 serial dilutions of compounds as follows. For each plate (4 compounds/plate) 600 μL were added to 4 Bio-Rad Titertubes in a Titertube rack. […] Using Falcon Flexiplates, 100 μL of Hepes/Saline buffer or human serum were added to rows B through G. A multi-channel pipetter set to 180 μL was used to with four tips spaced evenly the pipetter. Each set of four tubes was mixed 5 times and 180 μL of 2× compound was transferred to the first column of each compound dilution in Row B, leaving Row A empty. 180 μL were added to the other wells in Row A. Serial dilutions were performed down the plate by transferring 50 μL to the next dilution and mixing 5 times, changing tips each time after mixing.
A 20 μg/mL solution in Hepes/Saline buffer or human serum, of 21/6 antibody was the positive control and was set aside in a reagent trough to add to cell suspension plate.
The cell staining was accomplished by first harvesting the log-phase Jurkat™ cells by centrifugation in 50 mL tubes (1100 rpm for 5 minutes). The cells were resuspended in 50 mL PBS++, spun, and resuspend in 20 mL PBS++. The cells were stained by adding 20 μL of Calcein AM for 30 minutes RT. The volume was brought to 50 mL with Hepes/Saline buffer and the cells were counted, spun, and resuspend to 2×10^6 cells/mL in Hepes/Saline buffer or human serum.
The compounds were incubated using the following procedure. In a new flexiplate, 65 μL of stained cells were added to Rows B through H. Then 65 μL of 2× compounds were added to the appropriate rows following the plate setup and mixed three times. 65 μL of 2×-21/6 antibody were added to Row H and mixed 3×. Finally the plate was incubated at room temperature for 30 minutes.
Fibronectin adhesion was measured using a fluorescent plate reader at EX 485/EM 530 after the following work up procedure. After incubation, the cells were mixed three times and 100 μL were transfered to the Fibronectin coated plates and incubated at 37° C. for about 35 minutes. Each plate was washed, row by row, by gently pipetting 100 μL of RT. PBS++ down the sides of the wells and turning the plate 90 degrees to aspirate. This procedure was repeated for a total of 3 washes. Each well was filled with 100 μL after washing by pipetting down the side of the well.
An IC50 value was calculated for each compound, both in the presence of the human serum and in the absence of human serum.

These results are taken from US7026328B2, “Heterocyclic compounds which inhibit leukocyte adhesion mediated by α4 integrins” (Elan Pharmaceuticals, Inc., priority 2002, dated 2006).

T1 sequence (P13612 34-1032): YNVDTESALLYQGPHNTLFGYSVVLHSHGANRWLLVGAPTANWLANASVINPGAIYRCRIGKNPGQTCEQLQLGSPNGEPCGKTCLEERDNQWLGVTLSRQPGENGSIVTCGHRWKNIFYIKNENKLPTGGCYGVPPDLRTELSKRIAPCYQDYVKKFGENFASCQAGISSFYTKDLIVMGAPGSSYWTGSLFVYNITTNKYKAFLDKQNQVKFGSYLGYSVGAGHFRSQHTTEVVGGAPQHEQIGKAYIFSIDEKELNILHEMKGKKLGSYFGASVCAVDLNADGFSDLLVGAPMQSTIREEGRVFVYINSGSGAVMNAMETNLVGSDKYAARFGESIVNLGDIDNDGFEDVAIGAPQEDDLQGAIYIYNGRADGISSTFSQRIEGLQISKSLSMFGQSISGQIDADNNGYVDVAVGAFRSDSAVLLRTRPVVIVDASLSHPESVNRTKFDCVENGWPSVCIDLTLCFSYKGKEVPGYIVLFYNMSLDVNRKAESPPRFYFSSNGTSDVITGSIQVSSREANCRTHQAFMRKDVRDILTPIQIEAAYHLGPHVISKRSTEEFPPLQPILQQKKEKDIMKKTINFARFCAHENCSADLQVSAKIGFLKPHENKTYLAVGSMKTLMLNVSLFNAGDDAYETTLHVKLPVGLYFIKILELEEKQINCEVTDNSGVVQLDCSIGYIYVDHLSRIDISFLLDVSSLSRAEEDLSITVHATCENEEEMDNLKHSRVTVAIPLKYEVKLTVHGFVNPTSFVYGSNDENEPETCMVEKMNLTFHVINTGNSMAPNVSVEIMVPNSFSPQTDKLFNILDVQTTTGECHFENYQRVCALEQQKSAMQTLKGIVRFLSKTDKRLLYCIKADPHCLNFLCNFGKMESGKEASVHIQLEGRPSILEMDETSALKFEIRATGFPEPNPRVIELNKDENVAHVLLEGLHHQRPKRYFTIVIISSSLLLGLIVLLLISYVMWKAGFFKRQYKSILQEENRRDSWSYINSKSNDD
T1 sequence (P05556 21-798): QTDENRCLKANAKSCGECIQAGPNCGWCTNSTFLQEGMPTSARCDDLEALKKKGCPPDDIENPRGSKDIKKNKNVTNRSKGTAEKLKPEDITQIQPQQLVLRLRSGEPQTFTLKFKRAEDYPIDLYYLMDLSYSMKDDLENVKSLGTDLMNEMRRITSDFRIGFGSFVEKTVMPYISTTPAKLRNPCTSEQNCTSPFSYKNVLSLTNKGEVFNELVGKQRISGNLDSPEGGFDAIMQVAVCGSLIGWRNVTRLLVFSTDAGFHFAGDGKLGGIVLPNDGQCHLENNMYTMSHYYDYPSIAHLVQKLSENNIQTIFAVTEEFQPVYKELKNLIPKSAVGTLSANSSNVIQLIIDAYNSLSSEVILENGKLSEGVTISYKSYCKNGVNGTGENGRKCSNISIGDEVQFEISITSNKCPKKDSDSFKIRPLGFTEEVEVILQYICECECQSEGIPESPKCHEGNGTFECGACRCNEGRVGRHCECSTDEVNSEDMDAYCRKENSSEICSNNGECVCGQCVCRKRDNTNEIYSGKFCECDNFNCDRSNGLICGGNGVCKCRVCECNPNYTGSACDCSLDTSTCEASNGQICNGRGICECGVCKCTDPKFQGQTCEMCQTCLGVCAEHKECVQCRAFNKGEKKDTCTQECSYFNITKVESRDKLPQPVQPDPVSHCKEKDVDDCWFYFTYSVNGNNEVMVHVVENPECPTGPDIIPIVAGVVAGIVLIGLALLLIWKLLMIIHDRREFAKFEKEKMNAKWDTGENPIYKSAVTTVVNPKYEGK

On to `C#CCN(c1cnc(N(CC)CC)nc1N[C@@H](Cc1ccc(OC(=O)N2CCCC2)cc1)C(=O)O)S(=O)(=O)c1ccc(F)cc1` [Example 15, N-(2-[N′,N′-diethylamino]-5-[N″-(4-fluorophenylsulfonyl)-N″-propargylamino]pyrimidin-4-yl)-4′-(pyrrolidin-1-ylcarbonyloxy)-L-phenylalanine], for which, in series [1], the AUC was 90.317 (μg/mL)h.
With `C#CCN(c1cnc(N(CC)CC)nc1N[C@@H](Cc1ccc(OC(=O)N2CCC2)cc1)C(=O)O)S(=O)(=O)c1ccc(F)cc1` [Example 18, N-(2-[N′,N′-diethylamino]-5-[N″-(4-fluorophenylsulfonyl)-N″-propargylamino]pyrimidin-4-yl)-4′-(azetidin-1-ylcarbonyloxy)-L-phenylalanine], the IC50 (in general, the point on the concentration scale where inhibition reaches its midpoint) was 480 nM at α4β1 integrin (containing human serum) and 5.86 nM at α4β1 integrin (without the human serum). Also, the AUC in series [1] was 4.7528 (μg/mL)h.
The matching figures for `CCN(CC)c1ncc(N(C)S(=O)(=O)c2ccc(F)cc2)c(N[C@@H](Cc2ccc(OC(=O)N3CCCCC3)cc2)C(=O)O)n1` [Example 5, N-(2-[N′,N′-diethylamino]-5-[N″-(4-fluorophenylsulfonyl)-N″-methylamino]pyrimidin-4-yl)-4′-(piperidin-1-ylcarbonyloxy)-L-phenylalanine]: 1570 nM, 6 nM and 2.1654 (μg/mL)h.
The matching figures for `CCN(CC)c1ncc(N(C)S(=O)(=O)c2ccc(F)cc2F)c(N[C@@H](Cc2ccc(OC(=O)N3CCCC3)cc2)C(=O)O)n1` [Example 11, N-(2-[N′,N′-diethylamino]-5-[N″-(2,4-difluorophenylsulfonyl)-N″-methylamino]pyrimidin-4-yl)-4′-(pyrrolidin-1-ylcarbonyloxy)-L-phenylalanine]: 483 nM, 8.37 nM and 14.818 (μg/mL)h.
The like results for `CCN(CC)c1ncc(N(C)S(=O)(=O)c2ccc(Cl)cc2)c(N[C@@H](Cc2ccc(OC(=O)N3CCCC3)cc2)C(=O)O)n1` [Example 4, N-(2-[N′,N′-diethylamino]-5-[N″-(4-chlorophenylsulfonyl)-N″-methylamino]pyrimidin-4-yl)-4′-(pyrrolidin-1-ylcarbonyloxy)-L-phenylalanine] were, in that order, 2280 nM, 19 nM and 13.829 (μg/mL)h.
For `CCN(CC)c1ncc(N(CC)S(=O)(=O)c2ccc(F)cc2F)c(N[C@@H](Cc2ccc(OC(=O)N3CCCC3)cc2)C(=O)O)n1` [Example 12, N-(2-[N′,N′-diethylamino]-5-[N″-(2,4-difluorophenylsulfonyl)-N″-ethylamino]pyrimidin-4-yl)-4′-(pyrrolidin-1-ylcarbonyloxy)-L-phenylalanine], the results for the IC50 at α4β1 integrin (containing human serum) and against α4β1 integrin (without the human serum) were 227 nM and 8.71 nM, respectively. The AUC in series [1] is on record as 4.7816 (μg/mL)h.
Regarding `C#CCN(c1cnc(N(CC)CC)nc1N[C@@H](Cc1ccc(OC(=O)N2CCCC2)cc1)C(=O)O)S(=O)(=O)c1ccc(Cl)cc1` [Example 19, N-(2-[N′,N′-diethylamino]-5-[N″-(4-chlorophenylsulfonyl)-N″-propargylamino]pyrimidin-4-yl)-4′-(pyrrolidin-1-ylcarbonyloxy)-L-phenylalanine], the IC50 is 6280 nM against α4β1 integrin (containing human serum) and 6.93 nM on α4β1 integrin (without the human serum).
`CCN(CC)c1ncc(N(C)S(=O)(=O)c2ccc(F)cc2)c(N[C@@H](Cc2ccc(OC(=O)N3CCCC3)cc2)C(=O)O)n1` [Example 3, N-(2-[N′,N′-diethylamino]-5-[N″-(4-fluorophenylsulfonyl)-N″-methylamino]pyrimidin-4-yl)-4′-(pyrrolidin-1-ylcarbonyloxy)-L-phenylalanine]: the IC50 was 1730 nM at α4β1 integrin (containing human serum) and 6.51 nM at α4β1 integrin (without the human serum). In addition, the AUC in series [1] was 22.271 (μg/mL)h.
The matching figures for `CCN(CC)c1ncc(N(C)S(=O)(=O)c2ccc(F)cc2)c(N[C@@H](Cc2ccc(OC(=O)N3CCC3)cc2)C(=O)O)n1` [Example 8, N-(2-[N′,N′-diethylamino]-5-[N″-(4-fluorophenylsulfonyl)-N″-methylamino]pyrimidin-4-yl)-4′-(azetidin-1-ylcarbonyloxy)-L-phenylalanine]: 225 nM, 1.66 nM and 2.4082 (μg/mL)h.
On to `CCN(CC)c1ncc(N(CC)S(=O)(=O)c2ccc(F)cc2)c(N[C@@H](Cc2ccc(OC(=O)N3CCCC3)cc2)C(=O)O)n1` [Example 2, N-(2-[N′,N′-diethylamino]-5-[N″-(4-fluorophenylsulfonyl)-N″-ethylamino]pyrimidin-4-yl)-4′-(pyrrolidin-1-ylcarbonyloxy)-L-phenylalanine], for which the IC50 on α4β1 integrin (containing human serum) is 604 nM; on α4β1 integrin (without the human serum) it was 1.59 nM. For the same compound, the AUC in series [1] is listed as 15.971 (μg/mL)h.
